Test results published in paper doi:10.1101/2025.03.27.645769, “Structural Insights into Kainate Receptor Desensitization” (bioRxiv, 2025).

Molecular target: T1, GluK2 (Rattus norvegicus, UniProt P42260)
T1 construct: gene Grik2; wild-type rat GluK2 expressed in HEK293T cells
Assay: whole-cell patch-clamp, potentiation of glutamate-evoked peak current
Format: cell-based

T1 sequence (P42260 32-908): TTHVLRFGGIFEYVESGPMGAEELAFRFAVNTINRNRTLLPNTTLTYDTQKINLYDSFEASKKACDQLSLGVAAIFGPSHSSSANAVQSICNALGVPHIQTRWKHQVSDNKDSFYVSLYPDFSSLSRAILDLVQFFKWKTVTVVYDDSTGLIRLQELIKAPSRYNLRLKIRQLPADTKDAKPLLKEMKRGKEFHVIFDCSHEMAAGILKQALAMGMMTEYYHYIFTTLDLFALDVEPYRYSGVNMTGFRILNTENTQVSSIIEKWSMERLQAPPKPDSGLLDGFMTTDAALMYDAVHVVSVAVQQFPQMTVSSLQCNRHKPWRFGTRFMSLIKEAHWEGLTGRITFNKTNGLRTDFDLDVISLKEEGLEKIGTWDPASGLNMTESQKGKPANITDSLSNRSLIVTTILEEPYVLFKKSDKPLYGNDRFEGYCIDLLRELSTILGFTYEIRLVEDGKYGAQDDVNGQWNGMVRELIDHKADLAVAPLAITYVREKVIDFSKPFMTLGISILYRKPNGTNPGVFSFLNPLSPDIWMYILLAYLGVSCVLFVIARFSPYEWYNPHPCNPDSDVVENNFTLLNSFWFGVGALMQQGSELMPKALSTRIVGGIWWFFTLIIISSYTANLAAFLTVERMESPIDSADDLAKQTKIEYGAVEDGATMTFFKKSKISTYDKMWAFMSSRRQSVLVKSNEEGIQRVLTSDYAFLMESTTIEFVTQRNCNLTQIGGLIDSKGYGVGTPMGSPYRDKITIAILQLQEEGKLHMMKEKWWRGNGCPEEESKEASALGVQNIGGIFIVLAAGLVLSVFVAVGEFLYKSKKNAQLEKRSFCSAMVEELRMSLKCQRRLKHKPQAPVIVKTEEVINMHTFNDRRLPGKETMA

`O=S1(=O)NCN(C2CC2)c2ccc(F)cc21` [BPAM344] was tested, and the “whole-cell patch-clamp, potentiation of glutamate-evoked peak current” value was “Potentiation of the peak current amplitudes (Ipeak) of GluK2 WT (left)”.
